One data set has as its system PPC-1 tumors. The data set is described as follows: Histology and immunohistochemistry (Ki-67, caspase 3) of xenograft tumors. Type of data set: in vivo, NOD/SCID mice. How it is done: To gain further insight into the biological status of these cells, immunohistochemistry analyses specific for the proliferation marker Ki-67, as well as caspase 3, an indicator of apoptosis were performed.

In another data set the test system is Jurkat. To be noted: cited from earlier work.
For data set [1], the system named is basal cell carcinoma cells (TE354T). To be noted: cited from earlier work.
For the next data set, the system named is H226 lung cancer cells. Nature of the data set: Long-term growth curve with repeated electroporation. To be noted: day 31, relative to control cells (100%). Type of data set: cell-based, human. How it is done:
To evaluate the therapeutic activity of hsa-miR-34a over an extended period of time, the inventors conducted growth curve experiments in the presence of miRNA for up to 31 days in H226 lung cancer cells. Since in vitro transfections of naked interfering RNAs, such as synthetic miRNA, are transient by nature and compromised by the dilution of the oligo during ongoing cell divisions, miRNA was administered at multiple time points (Bartlett et al., 2006; Bartlett et al., 2007). To accommodate miRNA delivery into a large quantity of cells, hsa-miR-34a or negative control miRNA were delivered by the electroporation method. Briefly, 1×10^6H226 were electroporated in triplicate with 1.6 μM hsa-miR-34a or negative control using the BioRad Gene Pulser Xcell™ instrument (BioRad Laboratories Inc., Hercules, Calif., USA), seeded and propagated in regular growth medium. When the control cells reached confluence (days 6, 17 and 25), cells were harvested, counted and electroporated again with the respective miRNAs. […] The population doubling was calculated from these electroporation events using the formula PD=ln(Nf/N0)/ln 2 and adjusting for the fact that approximately 72% of newly seeded cells adhere to the plate. […]

Data set [2] concerns prostate cancer cells PPC-1, Du145, LNCaP and RWPE2. The data set is described as follows: Alamar Blue proliferation assay, average over four prostate cancer cell lines. The format is cell-based, human. The source says:
The inventors assessed the therapeutic effect of hsa-miR-34a for prostate cancer by using four individual human prostate cancer cell lines. To measure cellular proliferation of prostate cancer cells, the following prostate cancer cell lines were used: PPC-1, derived from a bone metastasis; Du145, derived from a brain metastasis; RWPE2, derived from prostate cells immortalized by human papillomavirus 18 and transformed by the K-RAS oncogene; and LNCaP, derived from a lymph node metastasis (Bello et al., 1997; Pretlow et al., 1993; Stone et al., 1978; Brothman et al., 1991; Horoszewicz et al., 1980). PPC-1 and Du145 cells lack expression of the prostate-specific antigen (PSA) and are independent of androgen receptor (AR) signaling. In contrast, RWPE2 and LNCaP cells test positive for PSA and AR. Cells were transfected with synthetic hsa-miR-34a (Pre-miR™-hsa-miR-34a, Ambion cat. no. AM17100) or negative control miRNA (NC; Pre-miR™ microRNA Precursor Molecule-Negative Control #2; Ambion cat. no. AM17111) in a 96-well format using a lipid-based transfection reagent. […] Proliferation was assessed 4-7 days post-transfection using Alamar Blue™ (Invitrogen) following the manufacturer's instructions. […] Fluorescent light units (FLU) were measured after 3 hours, normalized to the control, and plotted as percent change in proliferation. […]

For data set [3], the system named is cervical cancer cells (HeLa). To be noted: cited from earlier work.
Data set [4] relates to prostate cancer cells (22Rv1). The note with it: cited from earlier work.
Where [5] appears, read: areas with viable cells in treated PPC-1 tumors.

As to “hsa-miR-34a: synthetic miRNA; mature sequence UGGCAGUGUCUUAGCUGGUUGUU (MIMAT0000255; SEQ ID NO:1) (synthetic miRNA, chemistry not given here)”, the “tumor histology (hematoxylin and eosin)” value in the data set on PPC-1 tumors (PPC-1 tumors) was “consisted mostly of matrigel with cellular debris and sparsely distributed cells”. The “Ki-67 (proliferation marker) immunohistochemistry” value in the data set on PPC-1 tumors (setting [5]) is reported as “reduced levels”. Further, the “caspase 3 (apoptosis indicator) immunohistochemistry” value with PPC-1 tumors (setting [5]) was “increased levels”. The “programmed cell death (apoptosis)” value in the data set on Jurkat is on record as “increased”. In addition, the proliferation result in data set [1], in data set [3] and in data set [4] was “inhibits the proliferation” each time. In the data set with H226 lung cancer cells (1.6 μM electroporated on days 0, 6, 17, 25), the “inhibition of H226 cell growth” value is 94.9%. In addition, in the data set on H226 lung cancer cells, the remaining cells stood at 5.1%. Further, in data set [2] (average over four prostate cancer cell lines, 30 nM, relative to negative control miRNA), the “average inhibition of cellular proliferation” value is listed as 37.18%. Moreover, in data set [2] (prostate cancer cell lines), the “growth-inhibitory activity compared with siEg5” value is reported as “comparable to that of Eg5-directed siRNA”.

These data come from US20090227533A1, “miR-34 Regulated Genes and Pathways as Targets for Therapeutic Intervention” (priority 2007, published 2009).
